Assay results from patent publication US20100190846A1, “MICROBICIDAL AGENT AND MICROBICIDAL COMPOSITION” (priority 2006, published 2010).
≈ marks a conversion by molar mass, not a printed value.

Legend:
Assay in all cases: Agar dilution method microbicidal test
Assay type in all cases: cell-based
Vibrio parahaemolyticus = tested on: Vibrio parahaemolyticus; as to Growth on agar plate: key: +: grew; −: did not grow
Procedure: (§1) As microbicidal test method for trans-p-coumaric acid, 3-hydroxypyridine, p-hydroxybenzaldehyde and vanillin, the agar dilution method was employed.
(§2) In agar dilution method, a solution in which a sample is dissolved is serially diluted several times, and each of the diluted sample solutions is mixed with agar medium to prepare plate agars having various sample concentration. Then bacteria is inoculated onto the plate agars. In cases where the sample has a microbicidal activity, the growth of the bacteria on the plates can be inhibited. The lowest concentration which can inhibit the growth of the bacteria is referred to as Minimum Inhibitory Concentration (MIC), thereby judging the degree of a microbicidal activity of the sample.
(§3) First, 400 mg of sample was dissolved in 1 mL of DMSO to prepare 400 mg/mL sample solution. Then 0.5 mL of this 400 mg/mL sample solution was diluted 2-fold to prepare 200 mg/mL sample solution. In the same manner, sample solutions of 100 mg/mL, 50.0 mg/mL, and 25.0 mg/mL were prepared. In addition, 300 mg/mL sample solution was prepared. Thereafter, 0.2 mL of these sample solutions each was mixed with 19.8 mL of BHI (Brain Heart Infusion Agar, Becton Dickinson, MD) medium, thereby preparing agar plates having the sample concentration of 4.0 mg/mL, 3.0 mg/mL, 2.0 mg/mL, 1.0 mg/mL, 0.5 mg/mL, and 0.25 mg/mL in dishes. […] Sterilized water was used for dissolving catechin, because catechin was insoluble in DMSO.
(§4) As test bacteria, 13 kinds of bacteria, i.e., Streptococcus pneumoniae, Streptococcus pyogenes, Enterococcus faecalis, Staphylococcus aureus, Escherichia coli, Salmonella sp., Yersinia enterocolitica, Vibrio parahaemolyticus, Pseudomonas aeruginosa, Bacillus cereus, Bacillus subtilis MB-32, Bacillus subtilis ATCC6633, and Candida sp., were used. These bacteria each was mixed with 2 mL of sterilized MHB^R liquid medium (Mueller Hinton Broth^R, Becton Dickinson, MD) to prepare bacterial suspension having turbidity 1 (bacterial concentration 10^8/mL). Previously, small test tubes were set into each cell of a grating and sterilized, and 1 mL of 13 bacterial suspensions were added into the small test tubes set in the grating, respectively. By using a microplanter (SAKUMA, model: MIT-P), 10 μL aliquot was collected from each test tube set in the grating and transferred to other test tube, and the transferred bacterial suspensions were diluted 100-fold (bacterial concentration 10^6/mL).
(§5) By using the microplanter, 10 μL (bacterial number […]) of this bacterial suspension was inoculated onto the plates containing the sample solution of various concentrations. The plates were incubated for 18 hours in an incubator at 37° C., and then a microbicidal activity of each compound was assessed.

Bacillus cereus = tested on: Bacillus cereus; as to Growth on agar plate: key: +: grew; −: did not grow
Procedure: as §1, §2, §3, §4, §5

Escherichia coli = tested on: Escherichia coli; also: key: +: grew; −: did not grow
Procedure: as §1, §2, §3, §4, §5

Staphylococcus aureus = tested on: Staphylococcus aureus; as to Growth on agar plate: key: +: grew; −: did not grow
Procedure: as §1, §2, §3, §4, §5

Salmonella sp. = tested on: Salmonella sp. Also: key: +: grew; −: did not grow.
Procedure: as §1, §2, §3, §4, §5

Streptococcus pneumoniae = tested on: Streptococcus pneumoniae; as to Growth on agar plate: key: +: grew; −: did not grow
Procedure: as §1, §2, §3, §4, §5

Pseudomonas aeruginosa = tested on: Pseudomonas aeruginosa; also: key: +: grew; −: did not grow
Procedure: as §1, §2, §3, §4, §5

Enterococcus faecalis = tested on: Enterococcus faecalis; also: key: +: grew; −: did not grow
Procedure: as §1, §2, §3, §4, §5

Yersinia enterocolitica = tested on: Yersinia enterocolitica; as to Growth on agar plate: key: +: grew; −: did not grow
Procedure: as §1, §2, §3, §4, §5

Streptococcus pyogenes = tested on: Streptococcus pyogenes; as to Growth on agar plate: key: +: grew; −: did not grow
Procedure: as §1, §2, §3, §4, §5

Candida sp. = tested on: Candida sp. As to Growth on agar plate: key: +: grew; −: did not grow.
Procedure: as §1, §2, §3, §4, §5

[1] = tested on: Bacillus subtilis ATCC6633; as to Growth on agar plate: key: +: grew; −: did not grow
Procedure: as §1, §2, §3, §4, §5

Bacillus subtilis MB-32 = tested on: Bacillus subtilis MB-32; also: key: +: grew; −: did not grow
Procedure: as §1, §2, §3, §4, §5

[2] = BHI agar, 37° C., 18 hours, read-out: MIC

Structure (SMILES): O=C(O)/C=C/c1ccc(O)cc1 [trans-p-Coumaric Acid, trans-p-coumaric acid]
- activity (in words) (Vibrio parahaemolyticus): had an activity
- Growth on agar plate (Vibrio parahaemolyticus; 0.25 mg/mL): +
- Growth on agar plate (Vibrio parahaemolyticus; 0.5 mg/mL): +
- Growth on agar plate (Vibrio parahaemolyticus; 1.0 mg/mL): +
- Growth on agar plate (Vibrio parahaemolyticus; 2.0 mg/mL): +
- Growth on agar plate (Vibrio parahaemolyticus; 3.0 mg/mL): −
- Growth on agar plate (Vibrio parahaemolyticus; 4.0 mg/mL): −
- MIC (Vibrio parahaemolyticus; [2]): 3000 mg/L (≈ 18.3 mM)
- activity (in words) (Bacillus cereus): had an activity
- Growth on agar plate (Bacillus cereus; 0.25 mg/mL): +
- Growth on agar plate (Bacillus cereus; 0.5 mg/mL): +
- Growth on agar plate (Bacillus cereus; 1.0 mg/mL): +
- Growth on agar plate (Bacillus cereus; 2.0 mg/mL): +
- Growth on agar plate (Bacillus cereus; 3.0 mg/mL): −
- Growth on agar plate (Bacillus cereus; 4.0 mg/mL): −
- MIC (Bacillus cereus; [2]): 3000 mg/L (≈ 18.3 mM)
- Growth on agar plate (Escherichia coli; 0.25 mg/mL): +
- Growth on agar plate (Escherichia coli; 0.5 mg/mL): +
- Growth on agar plate (Escherichia coli; 1.0 mg/mL): +
- Growth on agar plate (Escherichia coli; 2.0 mg/mL): +
- Growth on agar plate (Escherichia coli; 3.0 mg/mL): +
- Growth on agar plate (Escherichia coli; 4.0 mg/mL): +
- activity (in words) (Staphylococcus aureus): had an activity
- Growth on agar plate (Staphylococcus aureus; 0.25 mg/mL): +
- Growth on agar plate (Staphylococcus aureus; 0.5 mg/mL): +
- Growth on agar plate (Staphylococcus aureus; 1.0 mg/mL): +
- Growth on agar plate (Staphylococcus aureus; 2.0 mg/mL): +
- Growth on agar plate (Staphylococcus aureus; 3.0 mg/mL): +
- Growth on agar plate (Staphylococcus aureus; 4.0 mg/mL): −
- MIC (Staphylococcus aureus; [2]): 4000 mg/L (≈ 24.4 mM)
- Growth on agar plate (Salmonella sp.; 0.25 mg/mL): +
- Growth on agar plate (Salmonella sp.; 0.5 mg/mL): +
- Growth on agar plate (Salmonella sp.; 1.0 mg/mL): +
- Growth on agar plate (Salmonella sp.; 2.0 mg/mL): +
- Growth on agar plate (Salmonella sp.; 3.0 mg/mL): +
- Growth on agar plate (Salmonella sp.; 4.0 mg/mL): +
- activity (in words) (Streptococcus pneumoniae): had an activity
- Growth on agar plate (Streptococcus pneumoniae; 0.25 mg/mL): +
- Growth on agar plate (Streptococcus pneumoniae; 0.5 mg/mL): +
- Growth on agar plate (Streptococcus pneumoniae; 1.0 mg/mL): +
- Growth on agar plate (Streptococcus pneumoniae; 2.0 mg/mL): −
- Growth on agar plate (Streptococcus pneumoniae; 3.0 mg/mL): −
- Growth on agar plate (Streptococcus pneumoniae; 4.0 mg/mL): −
- MIC (Streptococcus pneumoniae; [2]): 2000 mg/L (≈ 12.2 mM)
- Growth on agar plate (Pseudomonas aeruginosa; 0.25 mg/mL): +
- Growth on agar plate (Pseudomonas aeruginosa; 0.5 mg/mL): +
- Growth on agar plate (Pseudomonas aeruginosa; 1.0 mg/mL): +
- Growth on agar plate (Pseudomonas aeruginosa; 2.0 mg/mL): +
- Growth on agar plate (Pseudomonas aeruginosa; 3.0 mg/mL): +
- Growth on agar plate (Pseudomonas aeruginosa; 4.0 mg/mL): +
- Growth on agar plate (Enterococcus faecalis; 0.25 mg/mL): +
- Growth on agar plate (Enterococcus faecalis; 0.5 mg/mL): +
- Growth on agar plate (Enterococcus faecalis; 1.0 mg/mL): +
- Growth on agar plate (Enterococcus faecalis; 2.0 mg/mL): +
- Growth on agar plate (Enterococcus faecalis; 3.0 mg/mL): +
- Growth on agar plate (Enterococcus faecalis; 4.0 mg/mL): +
- activity (in words) (Yersinia enterocolitica): had an activity
- Growth on agar plate (Yersinia enterocolitica; 0.25 mg/mL): +
- Growth on agar plate (Yersinia enterocolitica; 0.5 mg/mL): +
- Growth on agar plate (Yersinia enterocolitica; 1.0 mg/mL): +
- Growth on agar plate (Yersinia enterocolitica; 2.0 mg/mL): +
- Growth on agar plate (Yersinia enterocolitica; 3.0 mg/mL): +
- Growth on agar plate (Yersinia enterocolitica; 4.0 mg/mL): −
- MIC (Yersinia enterocolitica; [2]): 4000 mg/L (≈ 24.4 mM)
- activity (in words) (Streptococcus pyogenes): had an activity
- Growth on agar plate (Streptococcus pyogenes; 0.25 mg/mL): +
- Growth on agar plate (Streptococcus pyogenes; 0.5 mg/mL): +
- Growth on agar plate (Streptococcus pyogenes; 1.0 mg/mL): +
- Growth on agar plate (Streptococcus pyogenes; 2.0 mg/mL): +
- Growth on agar plate (Streptococcus pyogenes; 3.0 mg/mL): −
- Growth on agar plate (Streptococcus pyogenes; 4.0 mg/mL): −
- MIC (Streptococcus pyogenes; [2]): 3000 mg/L (≈ 18.3 mM)
- activity (in words) (Candida sp.): had an activity
- Growth on agar plate (Candida sp.; 0.25 mg/mL): +
- Growth on agar plate (Candida sp.; 0.5 mg/mL): +
- Growth on agar plate (Candida sp.; 1.0 mg/mL): +
- Growth on agar plate (Candida sp.; 2.0 mg/mL): +
- Growth on agar plate (Candida sp.; 3.0 mg/mL): −
- Growth on agar plate (Candida sp.; 4.0 mg/mL): −
- MIC (Candida sp.; [2]): 3000 mg/L (≈ 18.3 mM)
- MIC ([1]; ATCC6633, Bacillus subtilis ATCC 6633, BHI agar, 37° C., 18 hours, read-out: MIC): 3000 mg/L (≈ 18.3 mM)
- activity (in words) ([1]; Bacillus subtilis ATCC6633): had an activity
- Growth on agar plate ([1]; Bacillus subtilis ATCC 6633, 0.25 mg/mL): +
- Growth on agar plate ([1]; Bacillus subtilis ATCC 6633, 0.5 mg/mL): +
- Growth on agar plate ([1]; Bacillus subtilis ATCC 6633, 1.0 mg/mL): +
- Growth on agar plate ([1]; Bacillus subtilis ATCC 6633, 2.0 mg/mL): +
- Growth on agar plate ([1]; Bacillus subtilis ATCC 6633, 3.0 mg/mL): −
- Growth on agar plate ([1]; Bacillus subtilis ATCC 6633, 4.0 mg/mL): −
- Growth on agar plate (Bacillus subtilis MB-32; 0.25 mg/mL): +
- Growth on agar plate (Bacillus subtilis MB-32; 0.5 mg/mL): +
- Growth on agar plate (Bacillus subtilis MB-32; 1.0 mg/mL): +
- Growth on agar plate (Bacillus subtilis MB-32; 2.0 mg/mL): +
- Growth on agar plate (Bacillus subtilis MB-32; 3.0 mg/mL): +
- Growth on agar plate (Bacillus subtilis MB-32; 4.0 mg/mL): +
